Test systems include CCRF-CEM leukemia; HCT-15 colon; HOP-62 NSCLC; HS 578T breast; NCI-H522 lung; OVCAR-5 ovarian; RPMI-8226 leukemia; SK-MEL-2 melanoma; XF 498 CNS; DMS 114 small cell lung.
What all share (experiment): NCI-60 cell line screen, 48 h

This note sets out measurements from PubChem BioAssay (NCI).

The structures appear in SMILES notation.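 Values below derive from 48-hour exposures of cells grown in 96-well plates, with endpoints linearly interpolated between the two concentrations bracketing the appropriate inhibition level. Here, GI50 denotes the concentration required for 50% inhibition of growth. TGI: total growth inhibition.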 A value given as a limit tells only on which side of the number the result lay.

`CNCCOC(=O)/C=C1/CCC2C(C(O)CC3C(C)(C(=O)OC)CCCC23C)C1C` (configuration not stated): the GI50 is 0.0138 µM in the assay with CCRF-CEM leukemia; 0.0258 µM in the assay with HCT-15 colon; 0.013 µM in the assay on HOP-62 NSCLC; less than 0.01 µM in the assay on HS 578T breast; less than 0.01 µM in the assay with NCI-H522 lung; 0.0264 µM in the assay with OVCAR-5 ovarian. The GI50 was 0.0248 µM in the assay with RPMI-8226 leukemia and 0.0317 µM in the assay with SK-MEL-2 melanoma. Also, the TGI came out at 0.0518 µM in the assay on CCRF-CEM leukemia; 0.0654 µM in the assay on HCT-15 colon; 0.0259 µM with HOP-62 NSCLC; 0.298 µM in the assay on HS 578T breast; 0.0203 µM in the assay on NCI-H522 lung; 0.0693 µM in the assay with OVCAR-5 ovarian. The TGI was 0.0657 µM in the assay with RPMI-8226 leukemia and 0.0805 µM in the assay on SK-MEL-2 melanoma.
Regarding `O=C(O)CCCNS(=O)(=O)c1ccc2ccccc2c1`, the TGI in the assay on CCRF-CEM leukemia, in the assay with HCT-15 colon, in the assay on NCI-H522 lung, in the assay on OVCAR-5 ovarian, in the assay with RPMI-8226 leukemia and with SK-MEL-2 melanoma was greater than 100 µM in each case. Moreover, in the assay on XF 498 CNS, the TGI was greater than 100 µM.
On to `COc1cc2c3c(n(C)c(=O)c2cc1OC)-c1cc2c(cc1/C3=C/[C@H](N)CCCCN)OCO2`, for which the GI50 with CCRF-CEM leukemia is 0.0526 µM; in the assay with HCT-15 colon it was 6.8 µM; in the assay with HOP-62 NSCLC, 1.34 µM; with HS 578T breast, 2.52 µM; in the assay on NCI-H522 lung it was 0.665 µM; in the assay with OVCAR-5 ovarian, 0.885 µM. Also, the GI50 with RPMI-8226 leukemia was 1.59 µM; in the assay with SK-MEL-2 melanoma it was 2.68 µM. Moreover, the TGI was greater than 100 µM with CCRF-CEM leukemia; greater than 86.4 µM in the assay on HCT-15 colon; 11.6 µM with HOP-62 NSCLC; 17.4 µM with HS 578T breast; 5.85 µM with NCI-H522 lung; 5.65 µM in the assay on OVCAR-5 ovarian. Further, the results for the TGI in the assay on RPMI-8226 leukemia and in the assay on SK-MEL-2 melanoma were greater than 61.5 µM and 8.98 µM, respectively.
On to `COc1cc2c(c(OC)c1OC)-c1ccc(SC)c(=O)cc1C(CC(=O)Oc1cccc(C#N)c1)C2` (configuration not stated), for which the TGI in the assay on CCRF-CEM leukemia was 5.33 µM; with HCT-15 colon, 6.47 µM; in the assay with HOP-62 NSCLC, greater than 100 µM; with OVCAR-5 ovarian it was greater than 100 µM; with RPMI-8226 leukemia, 21.9 µM; in the assay on XF 498 CNS, 2.23 µM.
In the case of `CCOC(=O)/C(=C\c1ccc(F)cc1)C(C)=O`, the TGI with CCRF-CEM leukemia was greater than 100 µM; in the assay with HCT-15 colon, 44.2 µM; in the assay with HOP-62 NSCLC, greater than 100 µM; in the assay with HS 578T breast, greater than 100 µM; in the assay on NCI-H522 lung, 29.5 µM; with OVCAR-5 ovarian it was greater than 100 µM. Besides, the values for the TGI with RPMI-8226 leukemia and in the assay with SK-MEL-2 melanoma were 53 µM and 41.2 µM, respectively.
Regarding `COC(=O)[C@@H]1CCCN1C(=O)[C@H]1CCCN1C(=O)[C@@H](Cc1c[nH]c2ccccc12)NC(=S)Nc1cc(C(F)(F)F)cc(C(F)(F)F)c1`, the GI50 in the assay on CCRF-CEM leukemia was 3.25 µM; with HCT-15 colon, 3.35 µM; in the assay on HOP-62 NSCLC, 3.25 µM; in the assay with HS 578T breast, 2.94 µM; in the assay with NCI-H522 lung, 2.47 µM; in the assay with OVCAR-5 ovarian it was 4.3 µM. The GI50 is 2.62 µM with RPMI-8226 leukemia and 2.14 µM with SK-MEL-2 melanoma. Besides, the TGI in the assay with CCRF-CEM leukemia amounted to 11.3 µM; in the assay with HCT-15 colon, 12.8 µM; with HOP-62 NSCLC, 12.1 µM; with HS 578T breast it was 13.4 µM; with NCI-H522 lung, 6.65 µM; with OVCAR-5 ovarian, 18.4 µM. For the same molecule, the figures for the TGI in the assay on RPMI-8226 leukemia and with SK-MEL-2 melanoma were 7.93 µM and 3.98 µM, respectively.
As for `COc1ccc(C(=O)CC(c2ccc(OC)c(OC)c2)c2c(O)c3ccccc3oc2=O)cc1OC` (configuration not stated), the TGI in the assay with CCRF-CEM leukemia, in the assay with HCT-15 colon, in the assay with HOP-62 NSCLC, with HS 578T breast, in the assay on NCI-H522 lung and in the assay with OVCAR-5 ovarian was greater than 100 µM throughout. Further, the TGI in the assay with RPMI-8226 leukemia and in the assay with SK-MEL-2 melanoma was greater than 100 µM in each case.
Turning to `COc1ccc(C2=C(c3cc(OC)c(OC)c(OC)c3)C(=O)OC2)cc1OC`, the GI50 is less than 0.01 µM with CCRF-CEM leukemia; 0.0354 µM in the assay on HCT-15 colon; 0.0465 µM in the assay on HOP-62 NSCLC; 0.123 µM in the assay on HS 578T breast; less than 0.0189 µM in the assay on NCI-H522 lung; 0.379 µM in the assay on OVCAR-5 ovarian. In addition, the GI50 in the assay with RPMI-8226 leukemia was less than 0.0199 µM; in the assay with SK-MEL-2 melanoma it was 0.0313 µM. The TGI in the assay on CCRF-CEM leukemia was greater than 100 µM; in the assay on HCT-15 colon it was greater than 100 µM; in the assay with HOP-62 NSCLC, greater than 100 µM; with HS 578T breast it was 39.1 µM; in the assay with NCI-H522 lung, greater than 46.7 µM; in the assay on OVCAR-5 ovarian it was greater than 48.4 µM. For the same molecule, the TGI in the assay with RPMI-8226 leukemia is 0.961 µM; with SK-MEL-2 melanoma, greater than 100 µM.
For `COc1cc2ncn(-c3cc(OCc4ccccc4S(C)(=O)=O)c(C#N)s3)c2cc1OC`, the GI50 with CCRF-CEM leukemia is greater than 25 µM; in the assay with HCT-15 colon it was greater than 25 µM; with HOP-62 NSCLC, greater than 10.8 µM; with HS 578T breast it was greater than 17.9 µM; with NCI-H522 lung it was greater than 25 µM; in the assay on OVCAR-5 ovarian, greater than 25 µM. Moreover, the GI50 in the assay on RPMI-8226 leukemia is greater than 25 µM; in the assay with SK-MEL-2 melanoma it was greater than 23.4 µM. Further, the TGI is greater than 25 µM in the assay with CCRF-CEM leukemia; greater than 25 µM in the assay on HCT-15 colon; greater than 20.8 µM in the assay with HOP-62 NSCLC; greater than 25 µM in the assay with HS 578T breast; greater than 25 µM in the assay on NCI-H522 lung; greater than 25 µM in the assay on OVCAR-5 ovarian. Further, the TGI with RPMI-8226 leukemia and in the assay on SK-MEL-2 melanoma was greater than 25 µM each time.
`CN(C)CCNC(=O)c1nc([N+](=O)[O-])cn1C`: the TGI in the assay with CCRF-CEM leukemia, in the assay with HCT-15 colon, with HOP-62 NSCLC, in the assay on HS 578T breast, in the assay with NCI-H522 lung and in the assay with OVCAR-5 ovarian was greater than 100 µM throughout. The TGI with RPMI-8226 leukemia and with SK-MEL-2 melanoma was greater than 100 µM throughout.
On to `COC(=O)C1=Cc2c(cc(OC)c(OC)c2OC)[C@H](c2ccc(OC)c(OC)c2OC)C1C(=O)OC` (some centres not stated), for which the TGI in the assay with CCRF-CEM leukemia, in the assay on DMS 114 small cell lung, with HCT-15 colon, in the assay on HOP-62 NSCLC, in the assay with NCI-H522 lung and in the assay on OVCAR-5 ovarian was greater than 100 µM in each case. Moreover, the TGI in the assay with RPMI-8226 leukemia was greater than 100 µM.
On to `CNC(=O)OCc1[nH]ccc2c(C)c3nc4ccc(OC)cc4c3cc12`, for which the TGI is 13.6 µM with CCRF-CEM leukemia; greater than 21.9 µM in the assay on HCT-15 colon; 56 µM in the assay on HOP-62 NSCLC; greater than 20.7 µM with NCI-H522 lung; greater than 100 µM with OVCAR-5 ovarian; 10.6 µM in the assay on RPMI-8226 leukemia. The TGI with SK-MEL-2 melanoma is greater than 48 µM; in the assay on XF 498 CNS, greater than 33.8 µM.
